Results from patent US6352958B1, “Cycloimido-substituted benzofused heterocyclic herbicides” (FMC Corporation, priority 1997, dated 2002).

Assays:
Format in all cases: in vivo
[1] = test system: morningglory (Ipomea lacunosa or Ipomea hederacea); assay: Preemergence herbicidal activity, morningglory; conditions: Rate of Application 0.3 Kg/Ha, examined after 12-17 days
[2] = test system: velvetleaf (Abutilon theophrasti); assay: Preemergence herbicidal activity, velvetleaf; conditions: Rate of Application 0.3 Kg/Ha, examined after 12-17 days
[3] = test system: field corn (Zea mays var. Pioneer 3732); assay: Postemergence herbicidal activity, corn; conditions: rate of application 0.3 Kg/Ha, rated after 12-17 days
[4] = test system: soybean (Glycine max var. Winchester); assay: Postemergence herbicidal activity, soybean; conditions: rate of application 0.3 Kg/Ha, rated after 12-17 days
[5] = test system: green foxtail (Setaria viridis); assay: Postemergence herbicidal activity, green foxtail; conditions: rate of application 0.3 Kg/Ha, rated after 12-17 days
[6] = test system: wheat (Triticum aestivum var. Lew); assay: Preemergence herbicidal activity, wheat; conditions: Rate of Application 0.3 Kg/Ha, examined after 12-17 days
[7] = test system: green foxtail (Setaria viridis); assay: Preemergence herbicidal activity, green foxtail; conditions: Rate of Application 0.3 Kg/Ha, examined after 12-17 days
[8] = test system: field corn (Zea mays var. Pioneer 3732); assay: Preemergence herbicidal activity, corn; conditions: Rate of Application 0.3 Kg/Ha, examined after 12-17 days
[9] = test system: Johnsongrass (Sorghum halepense); assay: Preemergence herbicidal activity, johnsongrass; conditions: Rate of Application 0.3 Kg/Ha, examined after 12-17 days
[10] = test system: Johnsongrass (Sorghum halepense); assay: Postemergence herbicidal activity, johnsongrass; conditions: rate of application 0.3 Kg/Ha, rated after 12-17 days
[11] = test system: blackgrass (Aloepecurus myosuroides); assay: Preemergence herbicidal activity, blackgrass; conditions: Rate of Application 0.3 Kg/Ha, examined after 12-17 days
[12] = test system: common cocklebur (Xanthium strumarium L.); assay: Preemergence herbicidal activity, cocklebur; conditions: Rate of Application 0.3 Kg/Ha, examined after 12-17 days
[13] = test system: blackgrass (Aloepecurus myosuroides); assay: Postemergence herbicidal activity, blackgrass; conditions: rate of application 0.3 Kg/Ha, rated after 12-17 days
Experimental: The benzofused heterocyclic compounds of this invention were tested for pre- and postemergence herbicidal activity using a variety of crops and weeds. The test plants included soybean (Glycine max var. Winchester), field corn (Zea mays var. Pioneer 3732), wheat (Triticum aestivum var. Lew), morningglory (Ipomea lacunosa or Ipomea hederacea), velvetleaf (Abutilon theophrasti), green foxtail (Setaria viridis), Johnsongrass (Sorghum halepense), blackgrass (Aloepecurus myosuroides), common chickweed (Stellaria media), and common cocklebur (Xanthium strumarium L.).
For preemergence testing, two disposable fiber flats (8 cm×15 cm×25 cm) for each rate of application of each candidate herbicide were filled to an approximate depth of 6.5 cm with steam-sterilized sandy loam soil. The soil was leveled and impressed with a template to provide five evenly spaced furrows 13 cm long and 0.5 cm deep in each flat. Seeds of soybean, wheat, corn, green foxtail, and johnsongrass were planted in the furrows of the first flat, and seeds of velvetleaf, morningglory, common chickweed, cocklebur, and blackgrass were planted in the furrows of the second flat. The five-row template was employed to firmly press the seeds into place. A topping soil of equal portions of sand and sandy loam soil was placed uniformly on top of each flat to a depth of approximately 0.5 cm. Flats for postemergence testing were prepared in the same manner except that they were planted 9-14 days prior to the preemergence flats and were placed in a greenhouse and watered, thus allowing the seeds to germinate and the foliage to develop.
In both pre- and postemergence tests, a stock solution of the candidate herbicide was prepared by dissolving 0.27 g of the compound in 20 mL of water/acetone (50/50) containing 0.5% v/v sorbitan monolaurate. For an application rate of 3000 g/ha of herbicide a 10 mL portion of the stock solution was diluted with water/acetone (50/50) to 45 mL.
The preemergence flats were initially subjected to a light water spray. The four flats were placed two by two along a conveyor belt (i.e., the two preemergence followed by the two postemergence flats). The conveyor belt fed under a spray nozzle mounted about ten inches above the post-emergent foliage. The preemergent flats were elevated on the belt so that the soil surface was at the same level below the spray nozzle as the foliage canopy of the postemergent plants. The spray of herbicidal solution was commenced and once stabilized, the flats were passed under the spray at a speed to receive a coverage equivalent of 100 L/ha. At this coverage the application rates are those shown in the above table for the individual herbicidal solutions. The preemergence flats were watered immediately thereafter, placed in the greenhouse and watered regularly at the soil surface. The postemergence flats were immediately placed in the green-house and not watered until 24 hours after treatment with the test solution. Thereafter they were regularly watered at ground level. After 12-17 days the plants were examined and the phytotoxicity data were recorded.
Phytotoxicity data were taken as percent control. Percent control was determined by a method similar to the 0 to 100 rating system disclosed in “Research Methods in Weed Science,” 2nd ed., B. Truelove, Ed.; Southern Weed Science Society; Auburn University, Auburn, Ala., 1977.

[14] = test system: wheat (Triticum aestivum var. Lew); assay: Postemergence herbicidal activity, wheat; conditions: rate of application 0.3 Kg/Ha, rated after 12-17 days
[15] = test system: common cocklebur (Xanthium strumarium L.); assay: Postemergence herbicidal activity, cocklebur; conditions: rate of application 0.3 Kg/Ha, rated after 12-17 days
[16] = test system: velvetleaf (Abutilon theophrasti); assay: Postemergence herbicidal activity, velvetleaf; conditions: rate of application 0.3 Kg/Ha, rated after 12-17 days
[17] = test system: soybean (Glycine max var. Winchester); assay: Preemergence herbicidal activity, soybean; conditions: Rate of Application 0.3 Kg/Ha, examined after 12-17 days
[18] = test system: morningglory (Ipomea lacunosa or Ipomea hederacea); assay: Postemergence herbicidal activity, morningglory; conditions: rate of application 0.3 Kg/Ha, rated after 12-17 days

SMILES	PREEMERGENCE HERBICIDAL ACTIVITY (% CONTROL) IPOSS [1] [%]	PREEMERGENCE HERBICIDAL ACTIVITY (% CONTROL) ABUTH [2] [%]	Postemergence herbicidal activity (% control) CRN [3] [%]	Postemergence herbicidal activity (% control) SOY [4] [%]	Postemergence herbicidal activity (% control) SETVI [5] [%]	PREEMERGENCE HERBICIDAL ACTIVITY (% CONTROL) WHT [6] [%]	PREEMERGENCE HERBICIDAL ACTIVITY (% CONTROL) SETVI [7] [%]	PREEMERGENCE HERBICIDAL ACTIVITY (% CONTROL) CRN [8] [%]	PREEMERGENCE HERBICIDAL ACTIVITY (% CONTROL) SORHA [9] [%]	Postemergence herbicidal activity (% control) SORHA [10] [%]	PREEMERGENCE HERBICIDAL ACTIVITY (% CONTROL) ALOMY [11] [%]	PREEMERGENCE HERBICIDAL ACTIVITY (% CONTROL) XANPE [12] [%]	Postemergence herbicidal activity (% control) ALOMY [13] [%]	Postemergence herbicidal activity (% control) WHT [14] [%]	Postemergence herbicidal activity (% control) XANPE [15] [%]	Postemergence herbicidal activity (% control) ABUTH [16] [%]	PREEMERGENCE HERBICIDAL ACTIVITY (% CONTROL) SOY [17] [%]	Postemergence herbicidal activity (% control) IPOSS [18] [%]
Cn1c(C(F)(F)F)cc(=O)n(-c2c(F)cc(Cl)c3nc(CCc4ccccc4)[nH]c23)c1=O [Compound 379]	100	100	100	95	100	50	100	70	95	100	80	100	70	80	100	100	100	100
Cn1c(C(F)(F)F)cc(=O)n(-c2c(F)cc(Cl)c3nc(Cc4cccc(Cl)c4)[nH]c23)c1=O [Compound 382]	70	100	100	80	90	45	95	30	80	80	90	60	80	40	100	100	60	100
CC(=O)OC(c1ccccc1)c1nc2c(-n3c(=O)cc(C(F)(F)F)n(C)c3=O)c(F)cc(Br)c2o1 (stereo not drawn) [Compound 103]	100	100	80	90	100	50	100	80	70	60	90	70	70	50	80	100	50	80
CC(c1ccccc1)c1nc2c(Cl)cc(F)c(-n3c(=O)cc(C(F)(F)F)n(C)c3=O)c2[nH]1 (stereo not drawn) [Compound 377]	100	100	100	95	100	70	100	90	100	100	100	100	100	80	100	100	100	100
